Measurements published in the NIST ThermoML archive (doi:10.1021/je700713q).
± gives the expanded uncertainty stated by the source.

Conditions: Crystal; visual observation

Normal melting temperature: 229.00 ± 1 °C
Compound: CC1=CC(=O)[N-]S(=O)(=O)O1.[K+] [acesulfame potassium]
